Laboratory results: patent publication US10912815B2, “Inhibitors of mitochondrial fission and methods of use thereof” (The Board of Trustees of the Leland Stanford Junior …, priority 2011, dated 2021)
No end group written: not given here.

What was measured:
[1] = test system: SH-SY5Y cells; test: Apoptosis markers on mitochondria of SH-SY5Y cells (western blot: NT-Bax, cytochrome c, Bcl-2); assay type: cell-based, human; conditions: MPP+ 2 mM 1 hour, FIG. 9A
Description: SH-SY5Y neuronal cells were treated with P110 followed by the exposure to MPP+(2 mM for 1 hour). Active form of Bax (NT-Bax), cytochrome c and Bcl-2 on the mitochondria were determined by western blot analysis with the indicated antibodies. Shown are representative data of three independent experiments. Quantification of the data are provided as mean±SE of three independent experiments.

[2] = test system: mitochondrial electron transport chain (complexes I-V); test: Mitochondrial complex I-V assembly in SH-SY5Y cells (western blot); assay type: cell-based, human; conditions: SH-SY5Y treated with MPP+, FIG. 8
Description: The oxidative phosphorylation system in the mitochondria is responsible for generating ATP and consists of five major membrane protein complexes, the mitochondrial complexes I-V. MPP+ is a specific mitochondrial complex I inhibitor. P110 was tested for potential effects on MPP+-induced defects in mitochondrial complexes. […] The lower panel is a histogram in which the quantitative data generated from the western blot are expressed as mean±S.E. of 3 independent experiments.

[3] = molecular target: Recombinant protein Drp1 (Homo sapiens, UniProt O00429); test: In vitro GTPase assay, recombinant Drp1; assay type: biochemical
Chain of Recombinant protein Drp1 (O00429 1-710 isoform O00429-3): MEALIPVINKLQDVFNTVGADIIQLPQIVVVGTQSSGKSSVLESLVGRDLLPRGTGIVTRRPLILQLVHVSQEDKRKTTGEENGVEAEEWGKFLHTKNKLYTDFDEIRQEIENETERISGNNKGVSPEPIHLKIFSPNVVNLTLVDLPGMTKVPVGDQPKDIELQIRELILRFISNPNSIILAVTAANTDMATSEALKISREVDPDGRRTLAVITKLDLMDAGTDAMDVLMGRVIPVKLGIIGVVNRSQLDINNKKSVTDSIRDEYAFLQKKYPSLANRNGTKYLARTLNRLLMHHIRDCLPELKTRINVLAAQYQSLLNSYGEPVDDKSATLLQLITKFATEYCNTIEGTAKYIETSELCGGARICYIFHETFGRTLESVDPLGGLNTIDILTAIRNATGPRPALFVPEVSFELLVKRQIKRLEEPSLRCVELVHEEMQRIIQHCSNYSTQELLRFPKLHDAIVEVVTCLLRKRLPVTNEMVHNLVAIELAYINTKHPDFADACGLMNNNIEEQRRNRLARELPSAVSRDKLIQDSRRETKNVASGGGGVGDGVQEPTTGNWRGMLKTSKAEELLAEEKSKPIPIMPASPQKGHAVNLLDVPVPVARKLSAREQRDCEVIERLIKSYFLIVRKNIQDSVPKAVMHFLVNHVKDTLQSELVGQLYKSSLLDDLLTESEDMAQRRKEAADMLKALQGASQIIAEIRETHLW
Description: (§1) First, mitochondrial fission inhibitor constructs were tested to determine what, if any, effects each peptide had on enzyme (GTPase) activity. Recombinant protein Drp1, Mfn1, OPA1 or dynamin-1 (25 ng) was incubated with the indicated modulator peptides for 30 min. GTPase activity was assayed in vitro using a GTPase assay kit (Innova Biosciences, Littleton, USA, or Novus Biologicals, Littleton, Colo.) according to manufacturer's instructions.

[4] = test system: isolated mouse liver mitochondria with Drp1 recombinant protein; test: Superoxide production of isolated mouse liver mitochondria after addition of recombinant Drp1; assay type: biochemical; conditions: isolated mouse liver mitochondria 50 μg, Drp1 50 ng, P110 1 μM, p<0.05, n=3, FIG. 6C
Description: Mitochondrial membrane potential was also determined using TMRM (tetramethylrhodamine methylester). Fifty μg of mitochondria were incubated with recombinant Drp1 (50 ng) followed by incubation with TMRM (0.5 μM) in the presence or absence of P110 (1 μM) or NAC (2.5 mM). Fluoresence detection was performed using black 96-well plates in a fluorescence microplate reader at 560 nm excitation and 690 nm emission and potential was assessed by quenching of the fluorescent signal. The data are presented as mean±S.E. of percentage relative to control mitochondria from three independent experiments (FIG. 6B, #, p<0.05 vs. control cells; *, p<0.05; **, P<0.01 vs. MPP+- or CCCP-treated cells). Isolated mouse liver mitochondria (50 μg) were incubated with Drp1 recombinant protein (50 ng) in the presence or absence of P110 (1 μM). A kinetic change of mitochondrial superoxide production was determined by using MITOSOX™ (red mitochondrial superoxide indicator). […] Mitochondrial membrane potential of isolated mouse liver mitochondria was determined by TMRM, as described above, in the indicated groups. […] Protein levels of cytochrome c in the mitochondria were determined by western blot analysis with anti-cytochrome c antibodies in the indicated groups (insert, FIG. 6D). Total ROS production was determined by staining SH-SY5Y cells with CM2HDCFA (1 μM […] at 37° C.) in the indicated groups. […]

[5] = molecular target: T1, Mfn1 (Homo sapiens, UniProt Q8IWA4); test: In vitro GTPase assay, recombinant Mfn1; assay type: biochemical; conditions: recombinant Mfn1 25 ng, FIG. 2B
T1 sequence (Q8IWA4 1-741): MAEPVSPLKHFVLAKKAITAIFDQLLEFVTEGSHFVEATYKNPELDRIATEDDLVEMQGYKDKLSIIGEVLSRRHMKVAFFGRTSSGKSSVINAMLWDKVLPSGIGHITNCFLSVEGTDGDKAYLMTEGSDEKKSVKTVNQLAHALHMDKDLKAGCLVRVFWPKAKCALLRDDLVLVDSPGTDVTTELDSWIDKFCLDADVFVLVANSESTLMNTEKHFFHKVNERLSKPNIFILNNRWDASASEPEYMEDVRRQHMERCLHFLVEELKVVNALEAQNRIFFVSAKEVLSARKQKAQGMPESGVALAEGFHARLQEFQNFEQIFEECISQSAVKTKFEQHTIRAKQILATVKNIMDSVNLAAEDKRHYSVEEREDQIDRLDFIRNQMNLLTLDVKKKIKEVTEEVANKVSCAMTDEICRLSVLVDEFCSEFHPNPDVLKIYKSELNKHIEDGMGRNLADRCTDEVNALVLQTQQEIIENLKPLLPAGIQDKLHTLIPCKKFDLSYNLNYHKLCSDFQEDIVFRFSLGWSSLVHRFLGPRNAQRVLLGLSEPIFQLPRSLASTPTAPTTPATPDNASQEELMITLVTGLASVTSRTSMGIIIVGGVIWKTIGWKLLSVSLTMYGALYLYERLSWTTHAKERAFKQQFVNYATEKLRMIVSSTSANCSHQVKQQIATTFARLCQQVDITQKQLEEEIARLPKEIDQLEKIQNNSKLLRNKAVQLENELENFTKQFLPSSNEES
Description: as §1

[6] = test system: SH-SY5Y cells; test: Autophagy marker LC3 in SH-SY5Y cells; assay type: cell-based, human; conditions: MPP+
Text: Autophagy is another consequence of excessive mitochondrial fission (Twig et al., 2008, EMBO J 27:433-446; Wikstrom et al., 2009, Int J Biochem Cell Biol 41:1914-1927). Autophagy can be measured by the induction of the autophagic marker LC3 (microtubule-associated protein 1, light chain 3, also known as ATG8). Cultured SH-SY5Y cells were stained by anti-LC3 antibodies and nuclei were stained by Hoechsts staining. A histogram (FIG. 9C) depicts the number of LC3-positive punctate/per cell in the indicated groups. The data are presented as the mean±S.E. of three independent experiments. Western blot analysis of LC3 I/II with anti-LC3 antibodies is shown and is presented as a histogram where the data are expressed as mean±S.E. of three independent experiments (FIG. 9D, left panel).

**Q.** With “RRRQRRKKRGYGGDLLPRGS (RRRQRRKKRGYGGDLLPRGS-NH2) [P110, TAT47-57 carrier, GG linker, Drp1 region 110 (GTPase domain) peptide DLLPRGS; C-terminus C(O)-NH2]” as the sequence, how does the “Bcl-2 levels on the mitochondria” value [1] read?
**A.** improved decreased Bcl-2 levels

**Q.** What about the “accumulation of active Bax on the mitochondria” value [1] of the same sequence?
**A.** greatly reduced accumulation of active Bax

**Q.** What about the “release of cytochrome c from the mitochondria” value [1] of the same sequence?
**A.** blocked the release of cytochrome c

**Q.** And the “MPP+-induced reduction of NDUFB8 (complex I) and MTCOI (complex IV)” value [2]?
**A.** abolished the reduction of these two proteins

**Q.** What about the “assembly of the mitochondrial electron transport chain (ETC)” value [2] of the same sequence?
**A.** improved the assembly

**Q.** And the “specifically inhibited Drp1 GTPase activity” value ([3]; in vitro GTPase assay, n=3, first statement of b271)?
**A.** 30%

**Q.** And the “inhibition in the GTPase activity of recombinant Drp1” value ([3]; recombinant Drp1 25 ng, 30 min incubation with peptide, FIG. 2A)?
**A.** 50%

**Q.** And the “Drp1-induced ROS (superoxide) elevation in the mitochondria” value [4]?
**A.** abolished

**Q.** What about the “effect on GTPase activity of Mfn1 (mitofusin 1)” value [5] of the same sequence?
**A.** no effects

**Q.** And the “number of LC3-positive puncti in the cells” value ([6]; FIG. 9C)?
**A.** reduced

**Q.** What about the “LC3 cleavage (LC3 I to LC3 II)” value ([6]; FIG. 9D) of the same sequence?
**A.** reduced
